Data published in patent US5240928A, “Substituted quinazolinones as angiotensin II antagonists” (Merck & Co., Inc., priority 1991, dated 1993).

Test: pKa
Type: physicochemical

`CCCc1nc2ccc(C)cc2c(=O)n1Cc1ccc(-c2ccccc2-c2nn[nH]n2)cc1` [Example 76] showed a pKa of 4.7.
